Assays:
[1] = tested on: subcutaneous CT-26WT syngeneic graft of large intestine cancer; assay: Drug efficacy test, combined use of compound 1, 15 or 29 and oxaliplatin, mice with subcutaneous CT-26WT syngeneic graft (Test Example 4); format: in vivo, mouse; conditions: 40 mg/kg oral twice a day, combined with oxaliplatin 10 mg/kg i.v.; Balb/c mice; FIG. 3
Procedure: Drug Efficacy Test on Combined Use of Compound 1, Compound 15 or Compound 29 and Oxaliplatin Using Mice with Subcutaneous CT-26WT Syngeneic Graft of Large Intestine Cancer
5×10^5 cells of syngeneic large intestine cancer cell line CT26WT were subcutaneously transplanted to each of 6-week-old female Balb/c mice. The mice were divided into 5 groups each involving 6 individuals 10 days later when the average tumor size was 139 mm^3. The oral administration (solvent for oral administration and 40 mg/kg each of compound 1, compound 15 and compound 29 were administered twice a day at a 5-hour interval from days 1 to 5 and days 8 to 12) and intravenous injection (5% glucose solution and 10 mg/kg oxaliplatin were administered once a day on days 1 and 8) of each agent were started. Then, the major axis and minor axis of subcutaneous tumor were measured three times a week using calipers, and a mean and standard error of the mean of the ratios of the calculated volumes to the volumes at the administration start day in each group were plotted. The calculation expression was Volume (mm^3)=[Width^2 (mm^2)×Length (mm)]/2. The solvent group, compound 1 and compound 15 were each dissolved in a solvent for oral administration of DMSO:PEG400:PBS=10:40:150, and compound 29 was dissolved in a solvent for oral administration of DMSO:PEG400:PBS=20:80:50.
∘: the solvent for oral administration and the 5% glucose solution, •: the solvent for oral administration and oxaliplatin, ▴: compound 1 and oxaliplatin, ▪: compound 15 and oxaliplatin, and x: compound 29 and oxaliplatin.

[2] = biological target: rhIDO (recombinant human IDO) (Homo sapiens, UniProt P14902); assay: Enzyme assay using rhIDO (rate of kynurenine production); format: biochemical; conditions: 2 h; final concentration of the compound 10 μM; rate relative to reaction without compound; read-out: rhIDO-mediated kynurenine production
Procedure, shortened: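 rhIDO preincubated with compound 10 min at 37 °C in phosphate buffer with ascorbate, methylene blue and catalase; started with 2 mM tryptophan solution (stock) and run 120 min at 37 °C. Stopped with TCA and heated to convert N-formylkynurenine; kynurenine read at 490 nm after p-dimethylbenzaldehyde, background-subtracted, as % of no-compound control.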

[3] = biological target: T1, IDO in A431 cells (Homo sapiens, UniProt P14902); assay: IDO cell-based assay, kynurenine production in IFN-γ stimulated A431 cells; conditions: A-431, 24 h; final concentration of the compound 10 μM; rate relative to culture without compound
T1 construct: endogenous in cells; host or cells: A431 cells, IFN-γ stimulated
Procedure, shortened: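 A431 cells were cultured 24 h, then preincubated 1 h with compound in medium containing 178 μM L-tryptophan, and stimulated with IFN-γ (diluted to 100 ng/mL before addition) for 24 h. Kynurenine was measured by p-dimethylbenzaldehyde absorbance at 460 nm, background-subtracted, and expressed as % production versus no-compound control.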

Sequence of rhIDO (recombinant human IDO) (P14902 whole entry): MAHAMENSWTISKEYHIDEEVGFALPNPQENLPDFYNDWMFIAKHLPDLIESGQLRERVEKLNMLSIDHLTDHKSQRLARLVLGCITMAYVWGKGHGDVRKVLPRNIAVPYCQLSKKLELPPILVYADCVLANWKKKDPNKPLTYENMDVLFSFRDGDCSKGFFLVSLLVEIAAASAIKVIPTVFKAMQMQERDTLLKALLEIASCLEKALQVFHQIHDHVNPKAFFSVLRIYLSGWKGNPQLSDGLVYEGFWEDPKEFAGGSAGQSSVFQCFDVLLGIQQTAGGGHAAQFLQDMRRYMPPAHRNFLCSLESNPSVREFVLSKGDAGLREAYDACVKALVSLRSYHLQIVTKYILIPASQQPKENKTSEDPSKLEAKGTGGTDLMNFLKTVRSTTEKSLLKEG
T1 sequence (P14902 whole entry): as above

SMILES	tumor growth (ratio of tumor volume to start day) [1]	remaining activity at 10 µM [2]	remaining activity at 10 µM [3]
Cl.Cl.N=C(N)SCc1ccccc1CSC(=N)N [Compound 1, 1,2-phenylenebis(methylene) dicarbamimidothioate dihydrochloride]	can suppress tumor growth	26%	11%
Br.Br.N=C(N)SCc1ccc(F)cc1CSC(=N)N [Compound 2, (4-fluoro-1,2-phenylene)bis(methylene) dicarbamimidothioate dihydrobromide]	–	11%	7%
Br.Br.N=C(N)SCc1ccc(Cl)cc1CSC(=N)N [Compound 7, (4-chloro-1,2-phenylene)bis(methylene) dicarbamimidothioate dihydrobromide]	–	10%	0%
Br.Br.N=C(N)SCc1ccc(Br)cc1CSC(=N)N [Compound 10, (4-bromo-1,2-phenylene)bis(methylene) dicarbamimidothioate dihydrobromide]	–	1%	-1%
Br.Br.N=C(N)SCc1cscc1CSC(=N)N [Compound 15, thiophene-3,4-diylbis(methylene) dicarbamimidothioate dihydrobromide]	can suppress tumor growth	22%	12%
c1ccc(CSC2=NCN(CC3CCCCC3)CN2)c(CSC2=NCN(CC3CCCCC3)CN2)c1 [Compound 29, 1,2-bis(((5-(cyclohexylmethyl)-1,4,5,6-tetrahydro-1,3,5-triazin-2-yl)thio)methyl)benzene]	can suppress tumor growth	23%	10%
Br.Br.N=C(N)SCc1ccsc1CSC(=N)N [Compound 31, thiophene-2,3-diylbis(methylene) dicarbamimidothioate dihydrobromide]	–	11%	13%
Cl.Cl.c1ccc(CCN2CN=C(SCc3cscc3CSC3=NCN(CCc4ccccc4)CN3)NC2)cc1 [Compound 33, 3,4-Bis{[(5-phenethyl-1,4,5,6-tetrahydro-1,3,5-triazin-2-yl)thio]methyl}thiophene dihydrochloride]	–	37%	3%
Clc1cc(CSC2=NCN(CCc3ccccc3)CN2)c(CSC2=NCN(CCc3ccccc3)CN2)cc1Cl [Compound 37, 6,6′-(((4,5-Dichloro-1,2-phenylene)bis(methylene))bis(sulfanediyl))bis(3-phenethyl-1,2,3,4-tetrahydro-1,3,5-triazine)]	–	< 9%	1%
N/C(=N\c1ccc(Br)cc1)SCc1ccc(Br)cc1CS/C(N)=N/c1ccc(Br)cc1 [Compound 49, (4-Bromo-1,2-phenylene)bis(methylene) (E,E)-bis(N′-(4-bromophenyl)carbamimidothioate)]	–	1%	4%
Clc1cc(CSC2=NCN(CC3CCCCC3)CN2)c(CSC2=NCN(CC3CCCCC3)CN2)cc1Cl [Compound 50, 6,6′-(((4,5-Dichloro-1,2-phenylene)bis(methylene))bis(sulfanediyl))bis(3-(cyclohexylmethyl)-1,2,3,4-tetrahydro-1,3,5-triazine)]	–	9%	4%
Brc1ccc(CSC2=NCN(CC3CCCCC3)CN2)c(CSC2=NCN(CC3CCCCC3)CN2)c1 [Compound 52, 6,6′-(((4-Bromo-1,2-phenylene)bis(methylene))bis(sulfanediyl))bis(3-(cyclohexylmethyl)-1,2,3,4-tetrahydro-1,3,5-triazine)]	–	14%	1%
Br.N#Cc1ccc(CNC(=O)c2ccc(Br)cc2CSC(=N)N)cc1 [Compound 76, 5-Bromo-2-((4-cyanobenzyl)carbamoyl)benzyl carbamimidothioate hydrobromide]	–	78%	82%
Br.Br.N/C(=N\c1ccc(F)cc1F)SCc1ccccc1CS/C(N)=N/c1ccc(F)cc1F [Compound 95, 1,2-Phenylenebis(methylene) (E,E)-bis(N-(2,4-difluorophenyl)carbamimidothioate)dihydrobromide]	–	3%	2%
Br.N#Cc1ccc(CNC(=O)c2cc(Br)ccc2CSC(=N)N)cc1 [Compound 103, 4-Bromo-2-((4-cyanobenzyl)carbamoyl)benzyl carbamimidothioate hydrobromide]	–	0%	3%
